PubChem BioAssay (NCI)
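Method: 48-hour compound exposure of cells in 96-well plates, five concentrations, linear interpolation of endpoints. TGI: total growth inhibition.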

Tests used:
Test in all cases: NCI tumour cell line growth inhibition, 48 h
[1] = system: ACHN renal
[2] = system: HOP-62 NSCLC
[3] = system: LOX IMVI melanoma
[4] = system: SR leukemia
[5] = system: 786-0 renal
[6] = system: NCI-H460 lung
[7] = system: CCRF-CEM leukemia
[8] = system: SF-295 CNS
[9] = system: MDA-MB-231 breast
[10] = system: SN12C renal
[11] = system: CAKI-1 renal
[12] = system: HCT-116 colon
[13] = system: SNB-75 CNS
[14] = system: NCI-H23 lung
[15] = system: KM12 colon
[16] = system: OVCAR-8 ovarian
[17] = system: A498 renal
[18] = system: HCT-15 colon
[19] = system: TK-10 renal
[20] = system: MDA-N
[21] = system: UO-31 renal
[22] = system: MALME-3M melanoma
[23] = system: IGROV1 ovarian
[24] = system: PC-3 prostate
[25] = system: HL-60(TB) leukemia
[26] = system: HT29 colon
[27] = system: MCF7 breast
[28] = system: COLO 205 colon
[29] = system: NCI-H522 lung
[30] = system: HS 578T breast
[31] = system: NCI-H226 lung
[32] = system: SW-620 colon
[33] = system: SNB-19 CNS
[34] = system: M14 melanoma
[35] = system: MOLT-4 leukemia
[36] = system: RXF 393 renal
[37] = system: K-562 leukemia
[38] = system: UACC-257 melanoma
[39] = system: UACC-62 melanoma
[40] = system: T-47D breast
[41] = system: A549 NSCLC
[42] = system: SF-268 CNS
[43] = system: OVCAR-4 ovarian
[44] = system: MDA-MB-435
[45] = system: DU-145 prostate
[46] = system: SK-MEL-5 melanoma
[47] = system: NCI/ADR-RES ovarian
[48] = system: RPMI-8226 leukemia
[49] = system: OVCAR-5 ovarian
[50] = system: SK-MEL-2 melanoma
[51] = system: SF-539 CNS
[52] = system: SK-MEL-28 melanoma
[53] = system: EKVX NSCLC
[54] = system: OVCAR-3 ovarian
[55] = system: HCC-2998 colon
[56] = system: U251 CNS
[57] = system: SK-OV-3 ovarian
[58] = system: HOP-92 NSCLC
[59] = system: BT-549 breast

## COC1(OC)c2no[n+]([O-])c2C(OC)(OC)c2c1no[n+]2[O-]
[1]
  TGI: 68.5 µM
[2]
  TGI: 35.8 µM
[3]
  TGI: 33.5 µM
[4]
  TGI: 31.6 µM
[5]
  TGI: 48.9 µM
[6]
  TGI: > 100 µM
[7]
  TGI: 60.4 µM
[8]
  TGI: 80 µM
[9]
  TGI: 32.9 µM
[10]
  TGI: 54 µM
[11]
  TGI: 92.9 µM
[12]
  TGI: 24.6 µM
[13]
  TGI: 83.3 µM
[14]
  TGI: 28.2 µM
[15]
  TGI: 24.2 µM
[16]
  TGI: 26.7 µM
[17]
  TGI: 34.6 µM
[18]
  TGI: 67.4 µM
[19]
  TGI: 31.5 µM
[20]
  TGI: 62.8 µM
[21]
  TGI: > 100 µM
[22]
  TGI: 29.4 µM
[23]
  TGI: 51 µM
[24]
  TGI: 66.6 µM
[25]
  TGI: 87.6 µM
[26]
  TGI: 37.7 µM
[27]
  TGI: 42.7 µM
[28]
  TGI: 28.5 µM
[29]
  TGI: 47.5 µM
[30]
  TGI: 97.7 µM
[31]
  TGI: 64 µM
[32]
  TGI: 35.8 µM
[33]
  TGI: 59.5 µM
[34]
  TGI: 26.9 µM
[35]
  TGI: > 100 µM
[36]
  TGI: 58.7 µM
[37]
  TGI: > 100 µM
[38]
  TGI: 25 µM
[39]
  TGI: 24.3 µM
[40]
  TGI: > 100 µM
[41]
  TGI: 82 µM
[42]
  TGI: 73.3 µM
[43]
  TGI: > 100 µM
[44]
  TGI: 36.2 µM
[45]
  TGI: > 100 µM
[46]
  TGI: 28.6 µM
[47]
  TGI: 62.8 µM
[48]
  TGI: 87.8 µM
[49]
  TGI: 43.6 µM
[50]
  TGI: 42 µM
[51]
  TGI: 38 µM
[52]
  TGI: 32.1 µM
[53]
  TGI: 41.6 µM
[54]
  TGI: 28.3 µM
[55]
  TGI: 41.6 µM

## CCOC(=O)C(=O)C(=O)NN(C)C1=NCCN1
[1]
  TGI: > 100 µM
[2]
  TGI: > 100 µM
[3]
  TGI: > 100 µM
[4]
  TGI: > 100 µM
[5]
  TGI: > 100 µM
[6]
  TGI: > 100 µM
[7]
  TGI: > 100 µM
[8]
  TGI: > 100 µM
[9]
  TGI: > 100 µM
[10]
  TGI: > 100 µM
[12]
  TGI: > 100 µM
[13]
  TGI: > 100 µM
[14]
  TGI: > 100 µM
[15]
  TGI: > 100 µM
[16]
  TGI: > 100 µM
[56]
  TGI: > 100 µM
[18]
  TGI: > 100 µM
[19]
  TGI: > 100 µM
[20]
  TGI: > 100 µM
[21]
  TGI: > 100 µM
[22]
  TGI: > 100 µM
[23]
  TGI: > 100 µM
[24]
  TGI: > 100 µM
[25]
  TGI: > 100 µM
[26]
  TGI: > 100 µM
[27]
  TGI: > 100 µM
[28]
  TGI: > 100 µM
[29]
  TGI: > 100 µM
[30]
  TGI: > 100 µM
[31]
  TGI: > 100 µM
[32]
  TGI: > 100 µM
[33]
  TGI: > 100 µM
[34]
  TGI: > 100 µM
[35]
  TGI: > 100 µM
[57]
  TGI: > 100 µM
[36]
  TGI: > 100 µM
[37]
  TGI: > 100 µM
[38]
  TGI: > 100 µM
[58]
  TGI: > 100 µM
[39]
  TGI: > 100 µM
[40]
  TGI: > 100 µM
[41]
  TGI: > 100 µM
[42]
  TGI: > 100 µM
[43]
  TGI: > 100 µM
[44]
  TGI: > 100 µM
[45]
  TGI: > 100 µM
[46]
  TGI: > 100 µM
[47]
  TGI: > 100 µM
[48]
  TGI: > 100 µM
[49]
  TGI: > 100 µM
[50]
  TGI: > 100 µM
[51]
  TGI: > 100 µM
[52]
  TGI: > 100 µM
[53]
  TGI: > 100 µM
[59]
  TGI: > 100 µM
[54]
  TGI: > 100 µM
[55]
  TGI: > 100 µM
